Measured values: patent US20040057961A1, “Human t cell response to mhc-binding motif clusters” (priority 2000, published 2004)

What was measured:
[1] = test system: peripheral blood mononuclear cells from Mtb-immune (PPD skin-test positive) subjects; assay: Lymphoproliferation assay ([3H]thymidine, stimulation index) with PBMC of Mtb-immune subjects; format: cell-based, human; settings: for number of Mtb-immune responders (proliferative response SI≧2.0): all Mtb-immune subjects; for Phil % responders (n = 38) / Phil # responders (n = 38): Philippines cohort; for Phil % responders (n = 38) / Phil # responders (n = 38) / Prov % responders (n = 22) / Prov # responders (n = 22): response positive if SI≧2.0; for Phil # responders (n = 38) / Prov # responders (n = 22): peptide 1 and 10 μg/ml; for Prov % responders (n = 22) / Prov # responders (n = 22): Providence cohort
[2] = test system: peripheral blood mononuclear cells from Mtb-naive (PPD skin-test negative) subjects; assay: Lymphoproliferation assay ([3H]thymidine, stimulation index) with PBMC of Mtb-naive subjects; format: cell-based, human; settings: n=19

Substance	number of Mtb-immune responders (proliferative response SI≧2.0) ([1]; n=40)	Phil % responders (n = 38) [1] [%]	Phil # responders (n = 38) [1]	Prov % responders (n = 22) [1] [%]	Prov # responders (n = 22) [1]	further results
AELPGVDPDKDVD (listed as Mycobacterium tuberculosis) [16-3, 16 kDa Mtb protein, amino acids 54-66]	one					
CEVWSNVSETISGPRLYGEM (listed as Mycobacterium tuberculosis) [14-5, 14 kDa Mtb protein, amino acids 74-93]		5	2	5	2	
FAYGSFVRTVSLPVGA (listed as Mycobacterium tuberculosis) [16-5, 16 kDa Mtb protein, amino acids 92-107]	six					Mtb-naive controls that responded [2]: none; % responders among Mtb-immune subjects ([1]; n=40): 28%
FSELFAAFPSFAGLRPTFDT [16-2, 16 kDa Mtb protein, amino acids 17-36]		10	4	3	1	
GSFGSAPSNGWLKLGLVEFG (listed as Mycobacterium tuberculosis) [14-2, 14 kDa Mtb protein, amino acids 19-38]	six	15	6	8	3	
KFLEGFVRTSNIKFQD (listed as Mycobacterium tuberculosis) [32-9, 32 kDa Mtb protein, amino acids 227-242]	six					
LAIGGAATGIAAVLTDGNPP [19-3]	six					
LAIYHPQQFVYAGAMSGLLD (listed as Mycobacterium tuberculosis) [32-7, 32 kDa Mtb protein, amino acids 135-154]	six					
LKLGLVEFGGVAKLNAEVMS (listed as Mycobacterium tuberculosis) [14-3, 14 kDa Mtb protein, amino acids 30-49]	six	8	3	10	4	
MLGNAPSVVPNTTLGMHC (listed as Mycobacterium tuberculosis) [14-1, 14 kDa Mtb protein, amino acids 1-18]		5	2	5	2	
PLLNVGKLIANNTRVWVY (listed as Mycobacterium tuberculosis) [32-8, 32 kDa Mtb protein, amino acids 193-210]						Mtb-naive controls that responded [2]: none; % responders among Mtb-immune subjects ([1]; n=40): 25%
QAVMLGTGTPNRA (listed as Mycobacterium tuberculosis) [14-4, 14 kDa Mtb protein, amino acids 56-68]		8	3	3	1	
QNVTGSVVCTTAAGNVN [19-2]	six					
RHVKPTGSAVVGLSMAASSA [32-5, 32 kDa Mtb protein, amino acids 113-132]	six					
RSLFPEFSELFAAFPSFAGL (listed as Mycobacterium tuberculosis) [16-1, 16 kDa Mtb protein, amino acids 11-30]	six	10	4	5	2	
SVVMPVGGQSSFYSDW (listed as Mycobacterium tuberculosis) [32-3, 32 kDa Mtb protein, amino acids 67-82]	only a few					
TT: tetanus toxoid, control antigen (Connaught) [reference compound]						Mtb-naive controls not showing a proliferative response ([2]; control antigen 5 μg/ml): one; Mtb-immune subjects showing a proliferative response in vitro ([1]; control antigen 5 μg/ml, n=40): All but six; stimulation index (SI) range ([1]; control antigen 5 μg/ml, range over responding subjects): 2-182
VGLSMAASSALTLAIYHPQQ (listed as Mycobacterium tuberculosis) [32-6, 32 kDa Mtb protein, stop at amino acid 142]	six					
VSETISGPRLYGEMTMQGTR (listed as Mycobacterium tuberculosis) [14-6, 14 kDa Mtb protein, amino acids 80-99]		3	1	3	1	
phytohemagglutinin [reference compound]						response to mitogen in words ([1]; 1 μg/ml, the 41 subjects who were tested (both groups)): robust response
